Results: patent US5206233A, “Substituted thiazepines as central nervous system agents” (Warner-Lambert Company, priority 1991, dated 1993)
Counter-ions that a name gives are not always drawn.

Tests used:
[1] = molecular target: sigma receptor; assay: 3-PPP binding (inhibition of (+)-[3H]-3-PPP, a sigma ligand, binding); details: inhibition of (+)-[3H]-3-PPP binding, method of Largent et al
[2] = test system: locomotor activity in mice; assay: inhibition of locomotor activity in mice; assay type: in vivo; details: Mus musculus, IP
Procedure: (§1) The compounds of Formula I are valuable sigma ligands. […] Additionally, the compounds of Formula I were tested for their ability to inhibit locomotor activity in mice according to the assay described by McLean, J. R., et al, Pharmacology, Biochemistry and Behavior 8:97-99 (1978); for their ability to inhibit contractions of electrically stimulated guinea pig ileum according to the method of Campbell, B. G., et al, Journal of Neuroscience 9 3380-3384 (1989) and Bass, P., et al, Journal of Pharmacology and Experimental Therapeutics 186:183-198 (1973). These tests further support the antipsychotic activity of the compounds of Formula I. The above test methods are incorporated herein by reference. The data in the table show the activity of representative compounds of Formula I.

[3] = test system: guinea pig ileum; assay: inhibition of contraction of electrically stimulated guinea pig ileum; details: Cavia porcellus, read-out: Inhibition of Contraction of Electrical Stimulation Guinea Pig Ileum IC50
Procedure: as §1

[4] = test system: sigma receptor; details: known antipsychotic agents; literature; cited from earlier work

Q: With COc1ccc(C2CCN(C)CCS2)cc1 (stereo not drawn) [Example 2, Hexahydro-7-(4-methoxyphenyl)-4-methyl-1,4-thiazepine, hydrochloride] as the compound, how does the IC50 [1] read?
A: 16.5 nM

Q: For CCN1CCSC(c2ccc(OC)cc2)CC1 (stereo not drawn) [Example 3, Hexahydro-7-(4-methoxyphenyl)-4-ethyl-1,4-thiazepine], which IC50 [1] is on record?
A: 6.22 nM

Q: Which IC50 [1] does the source give for COc1ccc(C2CCN(C(C)C)CCS2)cc1 (stereo not drawn) [Example 4, Hexahydro-7-(4-methoxyphenyl)-4-isopropyl-1,4-thiazepine, hydrochloride] here?
A: 1.62 nM

Q: For CN1CCSC(c2ccc(Cl)cc2)CC1 (stereo not drawn) [Example 6, Hexahydro-7-(4-chlorophenyl)-4-methyl-1,4-thiazepine, hydrochloride], which IC50 [1] is on record?
A: 121 nM

Q: With CCCN1CCSC(c2ccc(Cl)cc2)CC1 (stereo not drawn) [Example 10, Hexahydro-7-(4-chlorophenyl)-4-propyl-1,4-thiazepine] as the compound, how does the IC50 [1] read?
A: 21.3 nM

Q: Which results are given for COc1ccc(C2CCN(CCCCc3ccncc3)CCS2)cc1 (stereo not drawn) [Example 12, Hexahydro-7-(4-methoxyphenyl)-4-[4-(4-pyridinyl)butyl]-1,4-thiazepine]?
A: IC50 [1]: 1.32 nM; ED50 [2]: 13.9 mg/kg; IC50 [3]: 7300 nM

Q: Which IC50 [1] does the source give for COc1ccc(C2CCN(CCCC(=O)c3cccnc3)CCS2)cc1 (stereo not drawn) [Example 13, 1-(3-Pyridinyl)-7-(4-methoxyphenyl)-4-(tetrahydro-1,4-thiazepin-4(2H)-yl)-1-butanone, dihydrochloride] here?
A: 9.2 nM

Q: For Cl.c1ccc(C2CCN(CCCCc3ccncc3)CCS2)cc1 (stereo not drawn) [Example 14, Hexahydro-7-(phenyl)-4-[4-(4-pyridinyl)butyl]-1,4-thiazepine, hydrochloride], which IC50 [1] is on record?
A: 6.39 nM

Q: What about the ED50 [2] of the same compound?
A: 13.1 mg/kg

Q: What about the IC50 [3] of the same compound?
A: 13100 nM

Q: What does the source list for c1ccc(C2CCN(CCCCc3cccnc3)CCS2)cc1 (stereo not drawn) [Example 15, Hexahydro-7-(phenyl)-4-[4-(3-pyridinyl)butyl]-1,4-thiazepine]?
A: IC50 [1]: 2.5 nM; ED50 [2]: 17.9 mg/kg; IC50 [3]: 4000 nM

Q: With Clc1ccc(C2CCN(CCCCc3ccncc3)CCS2)cc1 (stereo not drawn) [Example 16, Hexahydro-7-(4-chlorophenyl)-4-[4-(4-pyridinyl)butyl]-1,4-thiazepine] as the compound, how does the IC50 [1] read?
A: 2.62 nM

Q: And the ED50 [2]?
A: 19 mg/kg

Q: With O=C(CCCN1CCC(O)(c2ccc(Cl)cc2)CC1)c1ccc(F)cc1 [haloperidol] as the compound, how does the “interaction with the sigma receptor (in words)” value (from here on “interaction”) [4] read?
A: interact with the sigma receptor

Q: With CCN1CCC[C@H]1CNC(=O)c1c(OC)ccc(Br)c1OC [remoxapride] as the compound, how does the “interaction” value [4] read?
A: interact with the sigma receptor

Q: For C[C@@H]1CN(CCCn2c3ccccc3c3ccccc32)C[C@H](C)N1 [rimcazole], which “interaction” value [4] is on record?
A: interact with the sigma receptor

Q: Which “interaction” value [4] does the source give for O=C1CC2(CCCC2)CC(=O)N1CCCCN1CCN(c2nsc3ccccc23)CC1 [tiospirone] here?
A: interact with the sigma receptor
